Data set [1] concerns the target T1, human melatonin 2 receptors (human MT2 receptors) (Homo sapiens, UniProt P49286).
T1 construct: expressed in transfected cells
T1 sequence (P49286 1-362): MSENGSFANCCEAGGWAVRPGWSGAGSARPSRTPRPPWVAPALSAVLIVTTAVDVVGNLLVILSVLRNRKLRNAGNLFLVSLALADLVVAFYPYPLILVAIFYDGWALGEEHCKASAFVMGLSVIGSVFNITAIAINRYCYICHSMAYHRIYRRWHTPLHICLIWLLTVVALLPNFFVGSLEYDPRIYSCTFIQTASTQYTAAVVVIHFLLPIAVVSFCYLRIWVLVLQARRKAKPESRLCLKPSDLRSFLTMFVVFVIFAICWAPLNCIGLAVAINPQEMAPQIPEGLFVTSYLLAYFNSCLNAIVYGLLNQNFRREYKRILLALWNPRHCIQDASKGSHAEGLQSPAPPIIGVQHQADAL
The data set is described as follows: Melatonin receptor binding inhibitory test (MT2). To be noted: 2-[125I] Iodomelatonin 1 nM solution, membrane fraction of CHO-hMT2 cells, 25° C. for 2.5 hr. The protocol: Melatonin Receptor Binding Inhibitory Test (2) Preparation of CHO-hMT2 Cells Expressing Human Melatonin 2 Receptors A cDNA fragment (SEQ ID NO: 2) encoding full-length of human melatonin 2 receptors (human MT2 receptors) was incorporated into expression vector pCMV-Script (Stratagene, #212220) to give the plasmid that was pCMV-human MT2 receptors expression vector for animal cell expression. CHO-K1 cells (ATCC, #CCL-61) were plated at the concentration of 1.5×10^5 cells/cm^2 in a 6 well plate (ASAHI TECHNO GLASS), and cultured under the conditions of 37° C., 5% CO2 for 24 hr. For gene transfection, solution obtained by blending pCMV-human MT2 receptors expression vector (1.9 μg), Lipofectamine Transfection Reagent (Invitrogen, #18324-012) (11.3 μL) and Minimum Essential Medium Eagle (MEM) medium (Sigma, M8042) (93.8 μL), and reacting at room temperature for 20 min was added to the cells per one well. The transfected cells were cultured in MEM medium containing 10% FBS (Life Technology) and 300 μg/mL Geneticin (GIBCO, #10131), and the cell line that stably expressed the plasmid gene was selected. By a receptor binding assay using 2-[^125I] […] (3) Preparation of Cellular Membrane Fraction of CHO Cell (CHO-hMelR7 and CHO-hMT2) Stably Expressing Human MT1 and MT2 Receptors CHO-hMelR7 and CHO-hMT2 cells were plated using Cellfactory (Nunc, #170009) under the conditions of 1×10^8 cells/2000 mL/flask. The cells were grown to confluent, and recovered by the following method. As the medium for CHO-hMelR7 and CHO-hMT2, MEM α containing 10% FBS and penicillin/streptomycin was used. 300 ng/mL of geneticin was added to the medium for CHO-hMT2. The medium was discarded, cells were washed twice with 200 mL of EDTA/PBS(-), 200 mL of EDTA/PBS(-) was further added, and the cells were stood still at room temperature for 20 min until they were released. The cells were recovered in four 50 mL tubes (Becton Dickinson, #352070), and centrifuged at 1,500 rpm for 10 min at 4° C. using a low speed cooling centrifuge (Hitachi, CF7D2). The supernatant was discarded, the pellets in the four tubes were suspended in 10 mL of PBS(-), and combined in one tube (Becton Dickinson, #352070). The mixture was further centrifuged at 1,500 rpm for 10 min at 4° C., and the obtained pellets were suspended in 20 mL of ice-cooled homogenizing buffer [10 mM NaHCO3, 5 mM EDTA, Protease inhibitor Complete (Roche), pH 7.4]. The cell suspension was homogenized 3 times using a polytron homogenizer at 20,000 rpm for 30 sec. The obtained homogenate was centrifuged (2,000 rpm, 10 min, 4° C.) using a low speed cooling centrifuge. The supernatant was recovered in an ultracentrifugation tube and ultracentrifuged (40,000 rpm, 60 min, 4° C.) using an ultracentrifuge (Beckman, […]). To the obtained pellets was added a suspending buffer [50 mM Tris-HCl, 1 mM EDTA, Protease inhibitor Complete (Roche), pH 7.4], and the pellets were suspended by pipetting. The protein concentration of this suspension was measured, diluted to 2 mg/mL to give cellular membrane fractions of CHO-hMelR7 and CHO-hMT2 cells. […] Protein was quantified using BCA protein assay kit (Pierce) with BSA as the standard. (4) Preparation of Membrane Fraction Suspension Immediately before use, the membrane fractions of CHO-hMelR7 and CHO-hMT2 cells of the above-mentioned (3) were diluted 20-fold with assay buffer (50 mM Tris-HCl, pH 7.7). (5) Preparation of 2-[^125I] […] (6) Binding Reaction The assay buffer (80 μL) of the above-mentioned (4) was added to each well of a 96-well plate (type 3363, Corning). […] (7) Measurement Using a cell harvester (PerkinElmer), the binding reaction mixture in each well of the 96-well plate was transferred to a treated (immersed in 50 mM Tris, pH 7.7 in advance) filter plate (UniFilter GF/C, PerkinElmer) and filtered.

In turn, `CC(=O)NCCc1cnn2ccc3c(c12)CCO3` [Example 3, N-[2-(8,9-dihydrofuro[3,2-c]pyrazolo[1,5-a]pyridin-1-yl)ethyl]acetamide] returned a melting point of 174 to 175 °C. Also, in data set [1], the IC50 is at most 100 nM.

`CCC(=O)NCCc1cnn2ccc3c(c12)CCO3` [Example 4, N-[2-(8,9-dihydrofuro[3,2-c]pyrazolo[1,5-a]pyridin-1-yl)ethyl]propanamide] yielded a melting point of 96 to 97 °C. In data set [1], the IC50 is at most 100 nM.

As for `CCc1nn2ccc3c(c2c1C(C)CNC(C)=O)CCO3` (stereo not shown) [Example 37, N-[2-(2-ethyl-8,9-dihydrofuro[3,2-c]pyrazolo[1,5-a]pyridin-1-yl)propyl]acetamide], the melting point fell in the range of 151 to 153 °C. The molecule also displayed an IC50 in data set [1] of at most 100 nM.

In turn, `CC(=O)NCCc1c(-c2ccc(F)cc2)nn2ccc3c(c12)CCO3` [Example 15, N-{2-[2-(4-fluorophenyl)-8,9-dihydrofuro[3,2-c]pyrazolo[1,5-a]pyridin-1-yl]ethyl}acetamide] gave a melting point of 160 to 162 °C. Moreover, in data set [1], the IC50 was at most 100 nM.

`CCC(=O)NCCC1CCc2cnc3c(c21)CCO3` (single isomer, unassigned) [Example 23, optically active N-[2-(1,6,7,8-tetrahydro-2H-cyclopenta[d]furo[2,3-b]pyridin-8-yl)ethyl]propanamide]: the IC50 in data set [1] is at most 100 nM.

As to `CCC(=O)NCCc1c(-c2ccc(F)cc2)nn2ccc3c(c12)CCO3` [Example 16, N-{2-[2-(4-fluorophenyl)-8,9-dihydrofuro[3,2-c]pyrazolo[1,5-a]pyridin-1-yl]ethyl}propanamide], the melting point was in the range of 170 to 171 °C. In data set [1], this molecule registered an IC50 of at most 100 nM.

The molecule `CC(=O)NCCc1c(-c2ccccc2)cn2ccc3c(c12)CCO3` [Example 17, N-[2-(8-phenyl-1,2-dihydrofuro[2,3-g]indolizin-9-yl)ethyl]acetamide] displayed an IC50 in data set [1] of at most 100 nM.

As for `CC(=O)NCCC1CCc2cnc3c(c21)CCO3` (single isomer, unassigned) [Example 20, optically active N-[2-(1,6,7,8-tetrahydro-2H-cyclopenta[d]furo[2,3-b]pyridin-8-yl)ethyl]acetamide], in data set [1], the IC50 is at most 100 nM.

On to `CCC(=O)NCCC1=CCc2cnc3c(c21)CCO3` [Example 29, N-[2-(1,6-dihydro-2H-cyclopenta[d]furo[2,3-b]pyridin-8-yl)ethyl]propanamide], for which the melting point lay within 111 to 112 °C. This molecule also gave a concentration for half-maximal inhibition (IC50) in data set [1] of at most 100 nM.

The molecule `CCc1nn2ccc3oc(C)cc3c2c1CCNC(C)=O` [Example 39, N-[2-(2-ethyl-8-methylfuro[3,2-c]pyrazolo[1,5-a]pyridin-1-yl)ethyl]acetamide] returned a melting point of 128 to 129 °C. Also, the IC50 in data set [1] was at most 100 nM.

Regarding `CCC(=O)NCCc1c(-c2ccccc2)nn2ccc3occc3c12` [Example 2, N-[2-(2-phenylfuro[3,2-c]pyrazolo[1,5-a]pyridin-1-yl)ethyl]propanamide], the melting point fell in the range of 161 to 163 °C. In addition, in data set [1], the IC50 is at most 100 nM.

Consider `CCC(=O)NCCC1=C(C(C)C)Cc2cnc3c(c21)CCO3` [Example 31, N-[2-(7-isopropyl-1,6-dihydro-2H-cyclopenta[d]furo[2,3-b]pyridin-8-yl)ethyl]propanamide], for which the melting point lay within 168 to 170 °C. This molecule also had an IC50 in data set [1] of at most 100 nM.

Consider `CCC(=O)NCC(C)c1c(CC)nn2ccc3c(c12)CCO3` (stereo not shown) [Example 38, N-[2-(2-ethyl-8,9-dihydrofuro[3,2-c]pyrazolo[1,5-a]pyridin-1-yl)propyl]propanamide], for which the melting point is 173 to 175 °C. Moreover, the IC50 in data set [1] is at most 100 nM.

Take `CCC(=O)NCCc1c(-c2ccccc2)nn2ccc3c(c12)CCO3` [Example 8, N-[2-(2-phenyl-8,9-dihydrofuro[3,2-c]pyrazolo[1,5-a]pyridin-1-yl)ethyl]propanamide]: the melting point lay within 169 to 170 °C. The molecule further showed an IC50 in data set [1] of at most 100 nM.

In data set [1], `CCC(=O)NCCC1CCc2cnc3c(c21)CCO3` (stereo not shown) [Example 22, N-[2-(1,6,7,8-tetrahydro-2H-cyclopenta[d]furo[2,3-b]pyridin-8-yl)ethyl]propanamide] had a half-maximal inhibitory concentration (IC50) of at most 100 nM.

As to `CCCC(=O)NCCc1cnn2ccc3c(c12)CCO3` [Example 5, N-[2-(8,9-dihydrofuro[3,2-c]pyrazolo[1,5-a]pyridin-1-yl)ethyl]butanamide], the melting point fell in the range of 58 to 59 °C. The IC50 in data set [1] is at most 100 nM.

`CC(=O)NCCC1=C(C(C)C)Cc2cnc3c(c21)CCO3` [Example 30, N-[2-(7-isopropyl-1,6-dihydro-2H-cyclopenta[d]furo[2,3-b]pyridin-8-yl)ethyl]acetamide]: the melting point is 164 to 166 °C. The molecule further registered an IC50 in data set [1] of at most 100 nM.

On to `CCCC(=O)NCCC1CCc2cnc3c(c21)CCO3` (stereo not shown) [Example 25, N-[2-(1,6,7,8-tetrahydro-2H-cyclopenta[d]furo[2,3-b]pyridin-8-yl)ethyl]butanamide], for which the IC50 in data set [1] is at most 100 nM.

The values above are taken from patent US8273761B2, “Tricyclic compound and medical use thereof” (Takeda Pharmaceutical Company Limited, priority 2006, dated 2012).
